Source: PubChem BioAssay AID1963986 (Molecular Pharmacology Branch, DTP, NCI, 2024)
Blank lines part the entries; values can stand above or below the compound they belong to.

Tested on: 171881-019-R-J1-PDC tumor spheroid viability
Assay: Anticancer human tumor 171881-019-R-J1-PDC patient-derived invasive breast carcinoma cell line growth inhibition [PI3K]
Conditions: spheroids with HUVEC and MSC; for IC50: curve of first compound; for viability, T/C: stronger effect = lower value
Procedure, shortened: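 Complex 3D spheroids (cancer cells + endothelial HUVEC + mesenchymal stem cells); drug pairs of targeted agent x inavolisib/alpelisib/duvelisib/copanlisib; half-log series from ~Cmax, max 10 microM if Cmax unknown; endpoint viability.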
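Further: spheroids exposed to compound for 7 days before viability read.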
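Wherever viability, T/C is given: 100% = DMSO vehicle-treated spheroids.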

IC50 (second compound 0.0316 µM): 0.437 µM | IC50 (second compound 0.1 µM): 0.105 µM | IC50 (second compound 0.316 µM): < 0.00949 µM | IC50 (second compound 1 µM): < 0.00949 µM | IC50 (second compound 3.16 µM): < 0.00949 µM | IC50 (second compound 10 µM): < 0.00949 µM
SMILES: Cn1cnc2c(F)c(Nc3ccc(Br)cc3Cl)c(C(=O)NOCCO)cc21 + Cc1nc(NC(=O)N2CCCC2C(N)=O)sc1-c1ccnc(C(C)(C)C(F)(F)F)c1
viability, T/C (second compound 0.0316 µM, first compound 0.00949 µM): 92.1% | viability, T/C (second compound 0.0316 µM, first compound 0.03 µM): 78.9% | viability, T/C (second compound 0.0316 µM, first compound 0.0949 µM): 71.5% | viability, T/C (second compound 0.0316 µM, first compound 0.3 µM): 58.5% | viability, T/C (second compound 0.0316 µM, first compound 0.949 µM): 35.9% | viability, T/C (second compound 0.0316 µM, first compound 3 µM): 16% | viability, T/C (second compound 0.1 µM, first compound 0.00949 µM): 73.9% | viability, T/C (second compound 0.1 µM, first compound 0.03 µM): 59% | viability, T/C (second compound 0.1 µM, first compound 0.0949 µM): 50.3% | viability, T/C (second compound 0.1 µM, first compound 0.3 µM): 41.8% | viability, T/C (second compound 0.1 µM, first compound 0.949 µM): 26.8% | viability, T/C (second compound 0.1 µM, first compound 3 µM): 12.4% | viability, T/C (second compound 0.316 µM, first compound 0.00949 µM): 45.7% | viability, T/C (second compound 0.316 µM, first compound 0.03 µM): 38.8% | viability, T/C (second compound 0.316 µM, first compound 0.0949 µM): 33.3% | viability, T/C (second compound 0.316 µM, first compound 0.3 µM): 28.6% | viability, T/C (second compound 0.316 µM, first compound 0.949 µM): 15.1% | viability, T/C (second compound 0.316 µM, first compound 3 µM): 5.7% | viability, T/C (second compound 1 µM, first compound 0.00949 µM): 28.8% | viability, T/C (second compound 1 µM, first compound 0.03 µM): 23.3% | viability, T/C (second compound 1 µM, first compound 0.0949 µM): 19.9% | viability, T/C (second compound 1 µM, first compound 0.3 µM): 15.1% | viability, T/C (second compound 1 µM, first compound 0.949 µM): 6.73% | viability, T/C (second compound 1 µM, first compound 3 µM): 2.34% | viability, T/C (second compound 3.16 µM, first compound 0.00949 µM): 11.5% | viability, T/C (second compound 3.16 µM, first compound 0.03 µM): 9.26% | viability, T/C (second compound 3.16 µM, first compound 0.0949 µM): 7.86% | viability, T/C (second compound 3.16 µM, first compound 0.3 µM): 5.01% | viability, T/C (second compound 3.16 µM, first compound 0.949 µM): 1.92% | viability, T/C (second compound 3.16 µM, first compound 3 µM): 0.87% | viability, T/C (second compound 10 µM, first compound 0.00949 µM): 2.26% | viability, T/C (second compound 10 µM, first compound 0.03 µM): 2.27% | viability, T/C (second compound 10 µM, first compound 0.0949 µM): 1.71% | viability, T/C (second compound 10 µM, first compound 0.3 µM): 0.92% | viability, T/C (second compound 10 µM, first compound 0.949 µM): 0.78% | viability, T/C (second compound 10 µM, first compound 3 µM): 0.48%

IC50 (second compound 0.0316 µM): 4.13 µM | IC50 (second compound 0.1 µM): 3.98 µM | IC50 (second compound 0.316 µM): 3.97 µM | IC50 (second compound 1 µM): 4.01 µM | IC50 (second compound 3.16 µM): 2.59 µM | IC50 (second compound 10 µM): 1.49 µM
SMILES: CC1(C)CCC(CN2CCN(c3ccc(C(=O)NS(=O)(=O)c4ccc(NCC5CCOCC5)c([N+](=O)[O-])c4)c(Oc4cnc5[nH]ccc5c4)c3)CC2)=C(c2ccc(Cl)cc2)C1 + CC(Nc1ncnc2nc[nH]c12)c1cc2cccc(Cl)c2c(=O)n1-c1ccccc1
viability, T/C (second compound 0.0316 µM, first compound 0.0316 µM): 88.6% | viability, T/C (second compound 0.0316 µM, first compound 0.1 µM): 80.2% | viability, T/C (second compound 0.0316 µM, first compound 0.316 µM): 80.3% | viability, T/C (second compound 0.0316 µM, first compound 1 µM): 76% | viability, T/C (second compound 0.0316 µM, first compound 3.16 µM): 61.9% | viability, T/C (second compound 0.0316 µM, first compound 10 µM): 14.3% | viability, T/C (second compound 0.1 µM, first compound 0.0316 µM): 89.7% | viability, T/C (second compound 0.1 µM, first compound 0.1 µM): 89.9% | viability, T/C (second compound 0.1 µM, first compound 0.316 µM): 74.5% | viability, T/C (second compound 0.1 µM, first compound 1 µM): 72.6% | viability, T/C (second compound 0.1 µM, first compound 3.16 µM): 64.1% | viability, T/C (second compound 0.1 µM, first compound 10 µM): 11.7% | viability, T/C (second compound 0.316 µM, first compound 0.0316 µM): 90.4% | viability, T/C (second compound 0.316 µM, first compound 0.1 µM): 88.2% | viability, T/C (second compound 0.316 µM, first compound 0.316 µM): 81.9% | viability, T/C (second compound 0.316 µM, first compound 1 µM): 97.3% | viability, T/C (second compound 0.316 µM, first compound 3.16 µM): 59.2% | viability, T/C (second compound 0.316 µM, first compound 10 µM): 12.4% | viability, T/C (second compound 1 µM, first compound 0.0316 µM): 92.1% | viability, T/C (second compound 1 µM, first compound 0.1 µM): 88.3% | viability, T/C (second compound 1 µM, first compound 0.316 µM): 81.4% | viability, T/C (second compound 1 µM, first compound 1 µM): 84.8% | viability, T/C (second compound 1 µM, first compound 3.16 µM): 59.9% | viability, T/C (second compound 1 µM, first compound 10 µM): 10.8% | viability, T/C (second compound 3.16 µM, first compound 0.0316 µM): 84.5% | viability, T/C (second compound 3.16 µM, first compound 0.1 µM): 87.9% | viability, T/C (second compound 3.16 µM, first compound 0.316 µM): 85% | viability, T/C (second compound 3.16 µM, first compound 1 µM): 75.7% | viability, T/C (second compound 3.16 µM, first compound 3.16 µM): 44.6% | viability, T/C (second compound 3.16 µM, first compound 10 µM): 11.4% | viability, T/C (second compound 10 µM, first compound 0.0316 µM): 64.5% | viability, T/C (second compound 10 µM, first compound 0.1 µM): 55.9% | viability, T/C (second compound 10 µM, first compound 0.316 µM): 57% | viability, T/C (second compound 10 µM, first compound 1 µM): 57% | viability, T/C (second compound 10 µM, first compound 3.16 µM): 37.7% | viability, T/C (second compound 10 µM, first compound 10 µM): 9.06%
